Reference: patent US20260226019A1, “NEGATIVE ALLOSTERIC MODULATORS OF METABOTROPIC GLUTAMATE RECEPTOR 2” (Vanderbilt University, priority 2023, published 2026)

Columns and labels:
human mGlu2 = biological target: T1, human mGlu2 (Homo sapiens, UniProt Q14416); assay: mGlu GIRK cell-based thallium flux assay, human mGlu2; conditions: HEK-293 cells co-expressing human mGlu2 and GIRK, EC80 glutamate, single experiment
T1 construct: expressed in transfected cells; host or cells: HEK-293 stably co-expressing GIRK channels
Procedure: (§1) Human embryonic kidney (HEK-293) cell lines stably co-expressing human or rat mGlu2 and G protein-coupled inwardly rectifying potassium (GIRK) channels, or human mGlu3 and GIRK, were used for in vitro evaluation of compound activity in thallium flux assay using a fluorescent thallium indicator dye.
(§2) The day before the assay, GIRK cells co-expressing human mGlu3, human or rat mGlu2, as described above, were plated in black-walled, clear-bottomed, amine-coated 384-well plates at a density of 15,000 cells/[…]/well in the assay medium (glutamine-depleted basal DMEM supplemented with 10% dialyzed FBS, 20 mM HEPES, 1 mM sodium pyruvate). Cells were incubated at 37° C. in the presence of 5% CO2. The next day, assay buffer (Hanks balanced salt solution, 20 mM HEPES, 4.16 mM sodium bicarbonate, pH 7.2) was prepared to dilute compounds and Thallos AM fluorescent dye solution. The 2× Thallos dye solution (final concentration 0.34 μM to the cells) was prepared by mixing the dye stock (2.97 mM in DMSO) to 1:1 with 10% pluronic acid before adding to the assay buffer. Cells were washed with assay buffer using a microplate washer to remove the medium, resulting in 20 μL of buffer remaining in each well. […] During the cell dye loading incubation period, a 10-point concentration serial dilution of compound was created from a 10 mM DMSO compound stock by performing a 1:3 serial dilution in DMSO using the Bravo liquid handler. The 2× compound plate was generated by transferring 0.24 μL of the diluted compound in each well to a daughter plate using an Echo acoustic liquid handler. This is further diluted in 40 μL assay buffer, resulting in a range from […] to 1.5 nM final concentration in the assay. The agonist plate (5×) was prepared to include EC80 glutamate concentration (a concentration to elicit 80% of a maximally effective glutamate concentration) in thallium buffer (125 mM sodium bicarbonate, 1 mM magnesium sulfate, 1.8 mM calcium sulfate, 5 mM glucose, 10 mM HEPES, pH 7.2, 12.5 mM thallium sulfate).
(§3) After dye-loading, cell plates were washed with assay buffer to remove excess extracellular dye using a microplate washer, resulting in 20 μL of buffer remaining in each well. After a ten-minute equilibration period, cell, compound and agonist plates were loaded into a Hamamatsu μCell kinetic imaging plate reader equipped with liquid handler to monitor fluorescence changes at 480 nm excitation and 540 nm emission settings. Briefly, after collection of baseline fluorescence, 20 μL of compound was added and incubated for two minutes and twenty seconds. This is immediately followed by adding 10 μL of glutamate-thallium buffer to the wells containing compound. The fluorescent signal was monitored an additional 2.5 minutes after the glutamate addition. Multiple reference wells containing no compound received either no glutamate (for a baseline reference), EC80 glutamate, or ECmax glutamate (for normalization to maximum response). […] Each compound concentration series occurred one time in each plate, and replicates from two or three plates were used in each experimental run. Thallium solutions were handled and disposed of according to guidelines from the Vanderbilt University Chemical Safety department.
(§4) Data were normalized using a static ratio function (F/F0) by dividing every fluorescent measurement by the initial fluorescent value for the corresponding well. The increase in signal resulting from the glutamate/thallium addition of the second add was measured by determining the slope from 3 seconds to 13 seconds after the addition. The average of all baseline slopes (no compound, no glutamate) was determined and this value was subtracted from all other slope values. The average of all ECmax slopes was determined and this value was used to normalize the baseline-corrected slopes to a percent max value (% Emax).

human mGlu3 = biological target: T2, human mGlu3 (Homo sapiens, UniProt Q14832); assay: mGlu GIRK cell-based thallium flux assay, human mGlu3; conditions: HEK-293 cells co-expressing human mGlu3 and GIRK, EC80 glutamate, single experiment
T2 construct: expressed in transfected cells; host or cells: HEK-293 stably co-expressing GIRK channels
Procedure: as §1, §2, §3, §4

T1 sequence (Q14416 19-872): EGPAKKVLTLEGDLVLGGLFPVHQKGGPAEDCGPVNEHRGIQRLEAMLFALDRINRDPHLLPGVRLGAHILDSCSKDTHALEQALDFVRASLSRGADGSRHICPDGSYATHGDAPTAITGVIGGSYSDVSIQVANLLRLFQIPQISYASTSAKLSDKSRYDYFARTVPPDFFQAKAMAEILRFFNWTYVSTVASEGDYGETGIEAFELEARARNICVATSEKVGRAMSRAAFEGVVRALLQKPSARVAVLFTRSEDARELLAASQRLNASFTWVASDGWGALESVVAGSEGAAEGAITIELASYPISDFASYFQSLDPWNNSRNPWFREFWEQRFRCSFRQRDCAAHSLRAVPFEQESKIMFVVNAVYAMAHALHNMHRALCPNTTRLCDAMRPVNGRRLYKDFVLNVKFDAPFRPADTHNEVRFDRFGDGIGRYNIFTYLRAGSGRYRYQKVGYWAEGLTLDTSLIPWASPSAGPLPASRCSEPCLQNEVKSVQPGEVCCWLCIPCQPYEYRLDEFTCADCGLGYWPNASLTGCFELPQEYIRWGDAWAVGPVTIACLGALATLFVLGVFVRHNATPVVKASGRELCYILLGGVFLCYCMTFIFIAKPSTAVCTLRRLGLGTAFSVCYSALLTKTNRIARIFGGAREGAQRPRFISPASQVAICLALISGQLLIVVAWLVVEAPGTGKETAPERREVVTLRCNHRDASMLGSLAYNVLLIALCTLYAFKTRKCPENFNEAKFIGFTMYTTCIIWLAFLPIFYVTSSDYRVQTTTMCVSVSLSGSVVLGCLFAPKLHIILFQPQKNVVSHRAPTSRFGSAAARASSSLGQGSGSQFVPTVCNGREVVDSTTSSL
T2 sequence (Q14832 23-879): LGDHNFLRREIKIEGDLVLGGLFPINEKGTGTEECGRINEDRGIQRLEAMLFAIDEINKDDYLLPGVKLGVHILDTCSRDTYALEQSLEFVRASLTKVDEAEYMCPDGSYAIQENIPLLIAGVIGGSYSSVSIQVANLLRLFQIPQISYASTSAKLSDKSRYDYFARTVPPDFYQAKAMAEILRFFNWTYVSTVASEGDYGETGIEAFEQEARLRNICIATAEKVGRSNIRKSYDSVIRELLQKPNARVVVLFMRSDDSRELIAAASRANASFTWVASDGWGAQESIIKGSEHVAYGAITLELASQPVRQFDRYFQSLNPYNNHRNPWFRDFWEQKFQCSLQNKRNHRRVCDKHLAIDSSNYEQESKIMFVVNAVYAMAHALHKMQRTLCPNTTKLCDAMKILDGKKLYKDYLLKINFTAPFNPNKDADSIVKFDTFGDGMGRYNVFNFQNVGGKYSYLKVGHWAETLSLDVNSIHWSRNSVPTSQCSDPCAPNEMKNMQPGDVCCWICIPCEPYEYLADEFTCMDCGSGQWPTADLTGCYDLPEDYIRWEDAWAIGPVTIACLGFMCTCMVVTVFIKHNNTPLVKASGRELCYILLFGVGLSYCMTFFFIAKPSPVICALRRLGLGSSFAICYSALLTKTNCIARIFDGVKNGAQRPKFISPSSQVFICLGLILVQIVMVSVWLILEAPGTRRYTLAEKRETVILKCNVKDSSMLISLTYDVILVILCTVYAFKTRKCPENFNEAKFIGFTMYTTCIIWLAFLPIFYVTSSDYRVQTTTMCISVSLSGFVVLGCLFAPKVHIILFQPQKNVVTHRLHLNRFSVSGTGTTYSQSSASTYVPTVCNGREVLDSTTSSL

Structure (SMILES) | IC50 (human mGlu2) [nM] | further results
O=C1NCc2c1cc(-c1ccc(F)cc1F)cc2-c1cnn(C2CCOC2)c1 (stereo not drawn) [Compound 63, 6-(2,4-difluorophenyl)-4-(1-(tetrahydrofuran-3-yl)-1H-pyrazol-4-yl)isoindolin-1-one] | 203 | Human mGlu3 GIRK IC50 (nM) (human mGlu3): Inactive
O=C1NCc2c1cc(-c1ccc(F)cc1F)cc2N1CCS(=O)(=O)CC1 [Compound A3, 6-(2,4-difluorophenyl)-4-(1,1-dioxidothiomorpholino)isoindolin-1-one] | 2970 | Human mGlu3 GIRK IC50 (nM) (human mGlu3): Inactive
CC(C)n1nccc1-c1cc(-c2ccc(F)cc2F)cc2c1CNC2=O [Compound 30, 6-(2,4-difluorophenyl)-4-(1-isopropyl-1H-pyrazol-5-yl)isoindolin-1-one] | 126 | IC50 (human mGlu3): > 10000 nM
O=C1NCc2c1cc(-c1ccc(F)cc1F)cc2-c1cnco1 [Compound 6, 6-(2,4-difluorophenyl)-4-(oxazol-5-yl)isoindolin-1-one] | 66 | Human mGlu3 GIRK IC50 (nM) (human mGlu3): Inactive
CSc1ncc(-c2cc(-c3ccc(F)cc3F)cc3c2CNC3=O)cn1 [Compound 39, 6-(2,4-difluorophenyl)-4-(2-(methylthio)pyrimidin-5-yl)isoindolin-1-one] | 555 | IC50 (human mGlu3): 3960 nM
Cc1ccc(-c2cc(-c3ccc(F)cc3F)cc3c2CNC3=O)cn1 [Compound 5, 6-(2,4-difluorophenyl)-4-(6-methylpyridin-3-yl)isoindolin-1-one] | 99 | IC50 (human mGlu3): > 10000 nM
Cc1nn(CC(C)(C)O)c(C)c1-c1cc(-c2ccc(F)cc2F)cc2c1CNC2=O [Compound 41, 6-(2,4-difluorophenyl)-4-(1-(2-hydroxy-2-methylpropyl)-3,5-dimethyl-1H-pyrazol-4-yl)isoindolin-1-one] | 435 | IC50 (human mGlu3): > 10000 nM
COC1CCCN(c2cc(-c3ccc(F)cc3F)cc3c2CNC3=O)C1 (stereo not drawn) [Compound A18, 6-(2,4-difluorophenyl)-4-(3-methoxypiperidin-1-yl)isoindolin-1-one] | 490 | IC50 (human mGlu3): 9870 nM
O=C1NCc2c1cc(-c1ccc(F)cc1F)cc2-c1ccc(F)nc1F [Compound 73, 6-(2,4-difluorophenyl)-4-(2,6-difluoropyridin-3-yl)isoindolin-1-one] | 157 | IC50 (human mGlu3): > 10000 nM
O=C1NCc2c(CN3CC4CCC(C3)O4)cc(-c3ccc(F)cc3F)cc21 [Compound B7, 4-((8-oxa-3-azabicyclo[3.2.1]octan-3-yl)methyl)-6-(2,4-difluorophenyl)isoindolin-1-one] | 292 | –
N#Cc1c(F)ccc(-c2cc3c(c(-c4cnsc4)c2)CNC3=O)c1F [Compound 55, 2,6-difluoro-3-(7-(isothiazol-4-yl)-3-oxoisoindolin-5-yl)benzonitrile] | > 10000 | –
Cc1cnn(C)c1-c1cc(C2=CCOCC2)cc2c1CNC2=O [Compound 94, 6-(3,6-dihydro-2H-pyran-4-yl)-4-(1,4-dimethyl-1H-pyrazol-5-yl)isoindolin-1-one] | 340 | –
CCOc1ccc(-c2cc3c(c(-c4cnsc4)c2)CNC3=O)c(F)c1F [Compound 54, 6-(4-ethoxy-2,3-difluorophenyl)-4-(isothiazol-4-yl)isoindolin-1-one] | > 10000 | –
O=C1NCc2c1cc(-c1ccc(F)cc1F)cc2C1=CCCCO1 [Compound B9, 6-(2,4-difluorophenyl)-4-(3,4-dihydro-2H-pyran-6-yl)isoindolin-1-one] | 853 | –
Cc1nn(C)c(C)c1-c1cc(C2CCOCC2)cc2c1CNC2=O [Compound 98, 6-(tetrahydro-2H-pyran-4-yl)-4-(1,3,5-trimethyl-1H-pyrazol-4-yl)isoindolin-1-one] | 985 | –
O=C1NCc2c1cc(-c1ccc(F)cc1F)cc2-c1cnn(C2CCCCC2)c1 [Compound 21, 4-(1-cyclohexyl-1H-pyrazol-4-yl)-6-(2,4-difluorophenyl)isoindolin-1-one] | – | Human mGlu2 GIRK IC50 (nM) (human mGlu2): Inactive
O=C1NCc2c1cc(-c1ccc(F)cc1F)cc2-c1ccnnc1 [Compound 12, 6-(2,4-difluorophenyl)-4-(pyridazin-4-yl)isoindolin-1-one] | 1120 | –

Structure (SMILES) | IC50 (human mGlu2) [nM] | further results
O=C1NCc2c1cc(-c1ccc(F)cc1F)cc2-c1ccco1 [Compound 29, 6-(2,4-difluorophenyl)-4-(furan-2-yl)isoindolin-1-one] | – | Human mGlu2 GIRK IC50 (nM) (human mGlu2): Inactive
COc1ccc(-c2cc3c(c(-c4cnsc4)c2)CNC3=O)c(F)c1F [Compound 49, 6-(2,3-difluoro-4-methoxyphenyl)-4-(isothiazol-4-yl)isoindolin-1-one] | 3480 | –
N#Cc1ccc(-c2cc(-c3ccc(F)cc3F)cc3c2CNC3=O)cn1 [Compound 33, 5-(6-(2,4-difluorophenyl)-1-oxoisoindolin-4-yl)picolinonitrile] | 1540 | –
Cc1cc(-c2cc(-c3ccc(F)cc3F)cc3c2CNC3=O)n(C)n1 [Compound 79, 6-(2,4-difluorophenyl)-4-(1,3-dimethyl-1H-pyrazol-5-yl)isoindolin-1-one] | – | IC50 (human mGlu3): > 10000 nM
O=Cc1ccc(-c2cc3c(c(-c4cnsc4)c2)CNC3=O)c(F)c1F [Compound 58, 2,3-difluoro-4-(7-(isothiazol-4-yl)-3-oxoisoindolin-5-yl)benzaldehyde] | > 10000 | –
COc1cc(F)c(-c2cc3c(c(-c4cnsc4)c2)CNC3=O)c(F)c1 [Compound 56, 6-(2,6-difluoro-4-methoxyphenyl)-4-(isothiazol-4-yl)isoindolin-1-one] | > 10000 | –
COc1cc(F)c(-c2cc3c(c(-c4cnsc4)c2)CNC3=O)cc1F [Compound 52, 6-(2,5-difluoro-4-methoxyphenyl)-4-(isothiazol-4-yl)isoindolin-1-one] | – | Human mGlu2 GIRK IC50 (nM) (human mGlu2): Inactive
COc1ccc(-c2cc3c(c(-c4cnsc4)c2)CNC3=O)c(F)c1 [Compound 44, 6-(2-fluoro-4-methoxyphenyl)-4-(isothiazol-4-yl)isoindolin-1-one] | 3560 | –
O=C1NCc2c1cc(-c1c(F)cc(F)cc1F)cc2-c1cnsc1 [Compound 45, 4-(isothiazol-4-yl)-6-(2,4,6-trifluorophenyl)isoindolin-1-one] | 2070 | –
O=C1NCc2c1cc(-c1ccc(F)cc1F)cc2-c1ccc2ncccc2c1 [Compound 24, 6-(2,4-difluorophenyl)-4-(quinolin-6-yl)isoindolin-1-one] | 1660 | –
O=C1NCc2c1cc(-c1cc(F)c(F)c(F)c1)cc2-c1cnsc1 [Compound 59, 4-(isothiazol-4-yl)-6-(3,4,5-trifluorophenyl)isoindolin-1-one] | > 10000 | –
O=C1NCc2c1cc(-c1ccc(F)cc1F)cc2-c1cnc2ccccc2c1 [Compound 25, 6-(2,4-difluorophenyl)-4-(quinolin-3-yl)isoindolin-1-one] | 3310 | –
O=C1NCc2c1cc(-c1ccc(F)cc1F)cc2-c1ccc2nccnc2c1 [Compound 27, 6-(2,4-difluorophenyl)-4-(quinoxalin-6-yl)isoindolin-1-one] | 1830 | –
Cc1sc(C)c(-c2cc(-c3ccc(F)cc3F)cc3c2CNC3=O)c1C [Compound 20, 6-(2,4-difluorophenyl)-4-(2,4,5-trimethylthiophen-3-yl)isoindolin-1-one] | 5260 | –
O=C1NCc2c1cc(-c1ccc(F)cc1F)cc2C1CCCCO1 (stereo not drawn) [Compound B10, 6-(2,4-difluorophenyl)-4-(tetrahydro-2H-pyran-2-yl)isoindolin-1-one] | 329 | –
Cn1cc(-c2cc(-c3ccc(F)cc3F)cc3c2CNC3=O)cc1C#N [Compound 14, 4-(6-(2,4-difluorophenyl)-1-oxoisoindolin-4-yl)-1-methyl-1H-pyrrole-2-carbonitrile] | 3080 | –
